Experimental data from patent publication US9845319B2, “Amide substituted thiazoles as modulators of RORyt” (Janssen Pharmaceutica NV, priority 2014, dated 2017).

Columns and labels:
[1] = target: T1, human RORγt ligand binding domain (RORγt LBD) (Homo sapiens, UniProt P51449); assay: RORγt ThermoFluor assay; conditions: estimated from thermal shift concentration response
T1 construct: His-tag (N); TurboTEV protease cleavage site (ENLYFQG) (N); made in house; host or cells: E. coli (pHIS1, a modified pET expression vector)
T1 sequence (P51449 with tags, fused parts or gaps): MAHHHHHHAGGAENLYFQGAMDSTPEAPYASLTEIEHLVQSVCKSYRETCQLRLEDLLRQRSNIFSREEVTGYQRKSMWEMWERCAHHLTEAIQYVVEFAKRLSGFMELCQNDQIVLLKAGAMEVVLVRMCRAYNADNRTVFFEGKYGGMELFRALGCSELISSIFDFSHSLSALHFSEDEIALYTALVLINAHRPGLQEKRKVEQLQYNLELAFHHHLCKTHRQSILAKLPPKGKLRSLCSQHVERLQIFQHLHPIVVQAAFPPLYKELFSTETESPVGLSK
In short: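 Thermal shift of RORγt LBD (0.065 mg/mL) with 60 μM 1,8-ANS in 100 mM Hepes pH 7.0, NaCl, GSH, 0.002% Tween-20, heated at 1° C/min. ANS fluorescence tracked versus temperature; ΔTm relative to DMSO wells. Compounds serially diluted 1:2 from 10 mM DMSO stock.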

full-length human RORγt = target: T2, full-length human RORγt (Homo sapiens, UniProt P51449); assay: RORγt (full-length human) Reporter Assay, Conditions A; format: cell-based; conditions: for IC50: HEK293T cells, GAL4-DBD-RORγt, luciferase, read-out: RORγt (FL) Reporter Assay A, IC50; for inhibition at 6 µM: read-out: RORγt (FL) Reporter Assay A, % inhibition @ 6 μM, 6 μM compound; for inhibition at 2 µM: read-out: RORγt (FL) Reporter Assay A, % inhibition (* at 2 μM), 2 μM compound concentration (footnote *)
T2 construct: expressed in transfected cells; host or cells: HEK293T, transiently transfected with pCMV-BD-ROR
T2 sequence (P51449 1-497 isoform P51449-2): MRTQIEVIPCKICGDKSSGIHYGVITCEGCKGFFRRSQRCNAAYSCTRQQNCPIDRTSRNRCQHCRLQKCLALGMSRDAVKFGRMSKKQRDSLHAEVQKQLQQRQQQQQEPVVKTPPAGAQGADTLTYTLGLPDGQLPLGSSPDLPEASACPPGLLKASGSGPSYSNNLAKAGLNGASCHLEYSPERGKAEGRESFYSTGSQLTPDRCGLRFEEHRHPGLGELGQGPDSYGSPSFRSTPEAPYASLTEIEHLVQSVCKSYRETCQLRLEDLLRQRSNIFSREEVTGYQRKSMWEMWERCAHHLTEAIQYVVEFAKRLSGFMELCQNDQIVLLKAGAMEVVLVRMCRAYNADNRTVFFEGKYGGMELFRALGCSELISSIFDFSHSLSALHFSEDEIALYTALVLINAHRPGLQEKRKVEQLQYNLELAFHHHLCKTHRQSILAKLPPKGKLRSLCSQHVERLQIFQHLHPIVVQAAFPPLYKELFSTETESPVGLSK
In short: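 Dual-luciferase readout after overnight (16 to 20 hours) treatment: firefly values scaled between DMSO-only and saturating reference-compound controls, then corrected by Renilla. Percent inhibition calculated against DMSO control, with IC50 derived from concentration-response plots.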

Row | Kd [1] | IC50 (full-length human RORγt) | inhibition at 6 µM (full-length human RORγt) | inhibition at 2 µM (full-length human RORγt) | inhibition at 0.22 µM (full-length human RORγt; 0.22 μM compound concentration (footnote ***), read-out: RORγt (FL) Reporter Assay A, % inhibition (*** at 0.22 μM)) | inhibition at 0.67 µM (full-length human RORγt; 0.67 μM compound concentration, read-out: RORγt (FL) Reporter Assay A, % inhibition (** at 0.67 μM)) | Structure (SMILES)
1 | 0.0014 nM | 66 nM | 104% | – | – | – | CC[C@H](NS(=O)(=O)c1ccc(-c2sc(-c3noc(CC(C)(C)C(=O)O)n3)nc2C(=O)N2CCC(F)(F)CC2)c(C(F)F)c1Cl)C(F)(F)F [Example 10/1, (S)-3-(3-(5-(3-Chloro-2-(difluoromethyl)-4-(N-(1,1,1-trifluorobutan-2-yl)sulfamoyl)phenyl)-4-(4,4-difluoropiperidine-1-carbonyl)thiazol-2-yl)-1,2,4-oxadiazol-5-yl)-2,2-dimethylpropanoic acid]
2 | 0.0036 nM | 50 nM | 97% | – | – | – | CC[C@H](NS(=O)(=O)c1ccc(-c2sc(-c3noc(CC(C)(C)C(=O)O)n3)nc2C(=O)N2CC(F)(F)C[C@@H]2C)c(C(F)F)c1Cl)C(F)(F)F [Example 10/3, 3-(3-(5-(3-Chloro-2-(difluoromethyl)-4-(N—((S)-1,1,1-trifluorobutan-2-yl)sulfamoyl)phenyl)-4-((S)-4,4-difluoro-2-methylpyrrolidine-1-carbonyl)thiazol-2-yl)-1,2,4-oxadiazol-5-yl)-2,2-dimethylpropanoic acid]
3 | 31 nM | 120 nM | 103% | – | – | – | C[C@H](NS(=O)(=O)c1ccc(-c2sc(-c3noc(C(C)(C)O)n3)nc2C(=O)N2CCC(F)CC2)c(C(F)F)c1F)C(F)(F)F [Example 11/1, (S)-3-(Difluoromethyl)-2-fluoro-4-(4-(4-fluoropiperidine-1-carbonyl)-2-(5-(2-hydroxypropan-2-yl)-1,2,4-oxadiazol-3-yl)thiazol-5-yl)-N-(1,1,1-trifluoropropan-2-yl)benzenesulfonamide]
4 | 12 nM | 46 nM | 108% | – | – | – | C[C@H](NS(=O)(=O)c1ccc(-c2sc(-c3noc(C(C)(C)O)n3)nc2C(=O)N2CCC(F)(F)CC2)c(C(F)F)c1F)C(F)(F)F [Example 11/2, (S)-3-(Difluoromethyl)-4-(4-(4,4-difluoropiperidine-1-carbonyl)-2-(5-(2-hydroxypropan-2-yl)-1,2,4-oxadiazol-3-yl)thiazol-5-yl)-2-fluoro-N-(1,1,1-trifluoropropan-2-yl)benzenesulfonamide]
5 | 9.4 nM | 68 nM | 103% | – | – | – | CC[C@H](NS(=O)(=O)c1ccc(-c2sc(-c3noc(CC(C)(C)O)n3)nc2C(=O)N2CCC(F)CC2)c(C(F)F)c1F)C(F)(F)F [Example 12, (S)-3-(Difluoromethyl)-2-fluoro-4-(4-(4-fluoropiperidine-1-carbonyl)-2-(5-(2-hydroxy-2-methylpropyl)-1,2,4-oxadiazol-3-yl)thiazol-5-yl)-N-(1,1,1-trifluorobutan-2-yl)benzenesulfonamide]
6 | 30 nM | 120 nM | 102% | – | – | – | CC[C@H](NS(=O)(=O)c1ccc(-c2sc(-c3noc(CC(C)(C)O)n3)nc2C(=O)N2CCC(F)(F)C2)c(C(F)F)c1F)C(F)(F)F [Example 12/1, (S)-3-(Difluoromethyl)-4-(4-(3,3-difluoropyrrolidine-1-carbonyl)-2-(5-(2-hydroxy-2-methylpropyl)-1,2,4-oxadiazol-3-yl)thiazol-5-yl)-2-fluoro-N-(1,1,1-trifluorobutan-2-yl)benzenesulfonamide]
7 | 1.3 nM | 12 nM | – | 105% | – | – | C[C@H](NS(=O)(=O)c1ccc(-c2sc(-c3cc(C(C)(C)O)on3)nc2C(=O)N2CCC(F)(F)CC2)c(Cl)c1Cl)C(F)(F)F [Example 13, (S)-2,3-Dichloro-4-(4-(4,4-difluoropiperidine-1-carbonyl)-2-(5-(2-hydroxypropan-2-yl)isoxazol-3-yl)thiazol-5-yl)-N-(1,1,1-trifluoropropan-2-yl)benzenesulfonamide]
8 | 4.9 nM | 21 nM | – | 101% | – | – | C[C@H](NS(=O)(=O)c1ccc(-c2sc(-c3cc(C(C)(C)O)on3)nc2C(=O)N2CCC(F)CC2)c(Cl)c1Cl)C(F)(F)F [Example 13/1, (S)-2,3-Dichloro-4-(4-(4-fluoropiperidine-1-carbonyl)-2-(5-(2-hydroxypropan-2-yl)isoxazol-3-yl)thiazol-5-yl)-N-(1,1,1-trifluoropropan-2-yl)benzenesulfonamide]
9 | 280 nM | > 2000 nM | – | -25% | – | – | C[C@H](NS(=O)(=O)c1ccc(-c2sc(-c3noc(=O)[nH]3)nc2C(=O)N2CCC(F)CC2)c(Cl)c1Cl)C(F)(F)F [Example 14, (S)-2,3-Dichloro-4-(4-(4-fluoropiperidine-1-carbonyl)-2-(5-oxo-4,5-dihydro-1,2,4-oxadiazol-3-yl)thiazol-5-yl)-N-(1,1,1-trifluoropropan-2-yl)benzenesulfonamide]
10 | 6.6 nM | 14 nM | – | 100% | – | – | C[C@H](NS(=O)(=O)c1ccc(-c2sc(-c3cnn[nH]3)nc2C(=O)N2CCCC[C@@H]2C)c(Cl)c1Cl)C(F)(F)F [Example 16, 2,3-Dichloro-4-(4-((S)-2-methylpiperidine-1-carbonyl)-2-(1H-1,2,3-triazol-5-yl)thiazol-5-yl)-N—((S)-1,1,1-trifluoropropan-2-yl)benzenesulfonamide]
11 | 7.1 nM | 14 nM | – | 104% | – | – | CCN(CC)C(=O)c1nc(-c2cccc(C(C)(C)O)n2)sc1-c1ccc(S(=O)(=O)N[C@@H](C)C(F)(F)F)c(Cl)c1Cl [Example 17, (S)-5-(2,3-Dichloro-4-(N-(1,1,1-trifluoropropan-2-yl)sulfamoyl)phenyl)-N,N-diethyl-2-(6-(2-hydroxypropan-2-yl)pyridin-2-yl)thiazole-4-carboxamide]
12 | 7.8 nM | 27 nM | – | – | 91% | – | CCN(CC)C(=O)c1nc(-c2cc(C(C)(C)O)ccn2)sc1-c1ccc(S(=O)(=O)N[C@@H](C)C(F)(F)F)c(Cl)c1Cl [Example 17/1, (S)-5-(2,3-Dichloro-4-(N-(1,1,1-trifluoropropan-2-yl)sulfamoyl)phenyl)-N,N-diethyl-2-(4-(2-hydroxypropan-2-yl)pyridin-2-yl)thiazole-4-carboxamide]
13 | 2.8 nM | 31 nM | – | – | – | 106% | CCN(CC)C(=O)c1nc(-c2cc(C(C)(C)O)ncn2)sc1-c1ccc(S(=O)(=O)N[C@@H](C)C(F)(F)F)c(Cl)c1Cl [Example 17/2, (S)-5-(2,3-Dichloro-4-(N-(1,1,1-trifluoropropan-2-yl)sulfamoyl)phenyl)-N,N-diethyl-2-(6-(2-hydroxypropan-2-yl)pyrimidin-4-yl)thiazole-4-carboxamide]
14 | 0.023 nM | 10 nM | – | 98% | – | – | CC[C@H](NS(=O)(=O)c1ccc(-c2sc(-c3cccc(CC(C)(C)C(=O)O)n3)nc2C(=O)N2CC(F)(F)C[C@@H]2C)c(C(F)F)c1F)C(F)(F)F [Example 19/1, 3-(6-(4-((S)-4,4-Difluoro-2-methylpyrrolidine-1-carbonyl)-5-(2-(difluoromethyl)-3-fluoro-4-(N—((S)-1,1,1-trifluorobutan-2-yl)sulfamoyl)phenyl)thiazol-2-yl)pyridin-2-yl)-2,2-dimethylpropanoic acid]
15 | 0.026 nM | 12 nM | – | 101% | – | – | C[C@H]1CCCCN1C(=O)c1nc(-c2noc(CC(C)(C)C(=O)O)n2)sc1-c1ccc(C(O)(C(F)(F)F)C(F)(F)F)c(Cl)c1Cl [Example 20, (S)-3-(3-(5-(2,3-Dichloro-4-(1,1,1,3,3,3-hexafluoro-2-hydroxypropan-2-yl)phenyl)-4-(2-methylpiperidine-1-carbonyl)thiazol-2-yl)-1,2,4-oxadiazol-5-yl)-2,2-dimethylpropanoic acid]
16 | 4.7 nM | 67 nM | 107% | – | – | – | CC1(NS(=O)(=O)c2ccc(-c3sc(-c4nnc(C(C)(C)O)o4)nc3C(=O)N3CCC(F)(F)CC3)c(Cl)c2Cl)CC1 [Example 21, 2,3-Dichloro-4-(4-(4,4-difluoropiperidine-1-carbonyl)-2-(5-(2-hydroxypropan-2-yl)-1,3,4-oxadiazol-2-yl)thiazol-5-yl)-N-(1-methylcyclopropyl)benzenesulfonamide]
